Data reported in patent US20230104936A1, “TRPML MODULATORS” (Casma Therapeutics, Inc., priority 2019, published 2023).
Structures can show the parent of a compound that is named as a salt.

Test system: TFEB
Experiment: TFEB nuclear translocation assay, HeLa wt cells
Assay type: cell-based
Details: Homo sapiens, HeLa, 2 h, 2 hrs compound treatment, Table 1 does not say HeLa wt or TRPML1 KO
Summary of the method: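 Cells are plated overnight, exposed to compounds for 2 hrs at 37° C, fixed with 4% PFA, blocked, and stained overnight at 4° C with rabbit anti-TFEB. After Alexa 488 secondary and Hoechst, nuclei and a perinuclear ring are segmented to give a nuclear:ring intensity ratio and AC50.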

Row | Structure (SMILES) | AC50 [µM]
1 | CP(C)(=O)c1ccc(S(=O)(=O)Nc2cc(Cl)ccc2N2CCOCC2)cc1 [Compound A-284, N-[5-chloro-2-(morpholin-4-yl)phenyl]-4-(dimethylphosphoryl)benzene-1-sulfonamide] | ≥ 10
2 | CN(C)S(=O)(=O)c1ccc(S(=O)(=O)N(C)c2cc(Cl)ccc2N2CCOCC2)cc1 [Compound A-285, N1-[5-chloro-2-(morpholin-4-yl)phenyl]-N1,N4,N4-trimethylbenzene-1,4-disulfonamide] | ≥ 10
3 | CN(C)S(=O)(=O)c1ccc(S(=O)(=O)N(C)c2cccc(Cl)c2N2CCOCC2)cc1 [Compound A-286, N1-[3-chloro-2-(morpholin-4-yl)phenyl]-N1,N4,N4-trimethylbenzene-1,4-disulfonamide] | ≥ 10
4 | CP(C)(=O)c1ccc(S(=O)(=O)Nc2cccc(Cl)c2N2CCOCC2)cc1 [Compound A-287, N-[3-chloro-2-(morpholin-4-yl)phenyl]-4-(dimethylphosphoryl)benzene-1-sulfonamide] | ≥ 10
5 | O=S(=O)(Nc1cccc(Cl)c1N1CCN(c2ccc(Cl)cc2F)CC1)c1ccc2c(c1)CCC2 [Compound A-288, N-{3-chloro-2-[4-(4-chloro-2-fluorophenyl)piperazin-1-yl]phenyl}-2,3-dihydro-1H-indene-5-sulfonamide] | ≤ 2
6 | CCN1CCN(c2ccc(Cl)cc2NS(=O)(=O)c2ccc3c(c2)CCC3)CC1 [Compound A-289, N-[5-chloro-2-(4-ethylpiperazin-1-yl)phenyl]-2,3-dihydro-1H-indene-5-sulfonamide] | ≥ 10
7 | CN(C)S(=O)(=O)c1ccc(S(=O)(=O)Nc2cc(Cl)ccc2N2CCOCC2)cc1 [Compound A-290, N4-[5-chloro-2-(morpholin-4-yl)phenyl]-N1,N1-dimethylbenzene-1,4-disulfonamide] | ≥ 10
8 | O=S(=O)(Nc1cc(Cl)ccc1N1CCN(c2ccc(Cl)cc2F)CC1)c1ccc2c(c1)CCC2 [Compound A-291, N-{5-chloro-2-[4-(4-chloro-2-fluorophenyl)piperazin-1-yl]phenyl}-2,3-dihydro-1H-indene-5-sulfonamide] | ≤ 2
9 | O=S(=O)(Nc1cc(Cl)ccc1N1CCC(c2c(F)cccc2F)CC1)c1ccc2c(c1)CCC2 [Compound A-292, N-{5-chloro-2-[4-(2,6-difluorophenyl)piperidin-1-yl]phenyl}-2,3-dihydro-1H-indene-5-sulfonamide] | ≤ 2
10 | CN1CCC2(CCN(c3ccccc3NS(=O)(=O)c3ccc(S(=O)(=O)N(C)C)cc3)CC2)C1 [Compound A-293, N1,N1-dimethyl-N4-(2-{2-methyl-2,8-diazaspiro[4.5]decan-8-yl}phenyl)benzene-1,4-disulfonamide] | ≥ 10
11 | CN(C)S(=O)(=O)c1ccc(S(=O)(=O)N2C(=O)N(C3CCN(c4ccc(Cl)cc4F)CC3)C(=O)C2(C)C)cc1 [Compound A-294, 4-({3-[1-(4-chloro-2-fluorophenyl)piperidin-4-yl]-5,5-dimethyl-2,4-dioxoimidazolidin-1-yl}sulfonyl)-N,N-dimethylbenzene-1-sulfonamide] | ≥ 10
12 | CN(C)C1CC2(CCN(c3ccccc3NS(=O)(=O)c3ccc(S(=O)(=O)N(C)C)cc3)CC2)c2ccccc21 (stereo not shown) [Compound A-295, N4-{2-[3-(dimethylamino)-2,3-dihydrospiro[indene-1,4′-piperidin]-1′-yl]phenyl}-N1,N1-dimethylbenzene-1,4-disulfonamide] | 2.01 to 8
13 | CN(C)S(=O)(=O)c1ccc(S(=O)(=O)Nc2ccccc2N2CC3(CN(c4ccc(Cl)cc4F)C3)C2)cc1 [Compound A-296, N1-(2-(6-(4-chloro-2-fluorophenyl)-2,6-diazaspiro[3.3]heptan-2-yl)phenyl)-N4,N4-dimethylbenzene-1,4-disulfonamide] | 2.01 to 8
14 | O=C1COCCN1c1c(Cl)cccc1NS(=O)(=O)c1ccc2c(c1)CCC2 [Compound A-297, N-[3-chloro-2-(3-oxomorpholin-4-yl)phenyl]-2,3-dihydro-1H-indene-5-sulfonamide] | ≥ 10
15 | O=S(=O)(Nc1cccc(Cl)c1N1CCC(c2c(F)cccc2F)CC1)c1ccc2c(c1)CCC2 [Compound A-298, N-{3-chloro-2-[4-(2,6-difluorophenyl)piperidin-1-yl]phenyl}-2,3-dihydro-1H-indene-5-sulfonamide] | ≤ 2
16 | CS(=O)(=O)c1ccc(S(=O)(=O)Nc2cc(Cl)ccc2N2CCOCC2)cc1 [Compound A-299, N-[5-chloro-2-(morpholin-4-yl)phenyl]-4-methanesulfonylbenzene-1-sulfonamide] | ≥ 10
17 | CCN1CCN(c2c(Cl)cccc2NS(=O)(=O)c2ccc3c(c2)CCC3)CC1 [Compound A-300, N-[3-chloro-2-(4-ethylpiperazin-1-yl)phenyl]-2,3-dihydro-1H-indene-5-sulfonamide hydrochloride] | 2.01 to 8
18 | CN1C(=O)c2cc(F)ccc2C12CCN(c1ccccc1NS(=O)(=O)c1ccc(S(=O)(=O)N(C)C)cc1)CC2 [Compound A-301, N4-(2-{5-fluoro-2-methyl-3-oxo-2,3-dihydrospiro[isoindole-1,4′-piperidin]-1′-yl}phenyl)-N1,N1-dimethylbenzene-1,4-disulfonamide] | ≤ 2
19 | CN1CC(c2ccccc2)C2(CCN(c3ccccc3NS(=O)(=O)c3ccc(S(=O)(=O)N(C)C)cc3)CC2)C1 (stereo not shown) [Compound A-302, N1,N1-dimethyl-N4-(2-{2-methyl-4-phenyl-2,8-diazaspiro[4.5]decan-8-yl}phenyl)benzene-1,4-disulfonamide] | ≥ 10
20 | CN(C)S(=O)(=O)c1ccc(S(=O)(=O)Nc2ccccc2N2CCC3(CC2)CN(Cc2ccccc2)c2cc(F)ccc23)cc1 [Compound A-304, N4-(2-{1-benzyl-6-fluoro-1,2-dihydrospiro[indole-3,4′-piperidin]-1′-yl}phenyl)-N1,N1-dimethylbenzene-1,4-disulfonamide] | ≤ 2
21 | CN1CC2(CCC(c3ccccc3NS(=O)(=O)c3ccc(S(=O)(=O)N(C)C)cc3)CC2)c2ccc(F)cc21 (stereo not shown) [Compound A-305, N1-(2-(6′-fluoro-1′-methylspiro[cyclohexane-1,3′-indolin]-4-yl)phenyl)-N4,N4-dimethylbenzene-1,4-disulfonamide] | 2.01 to 8
22 | Cc1nn(S(=O)(=O)c2ccc(S(=O)(=O)N(C)C)cc2)cc1N1CCN(c2ccc(Cl)cc2F)CC1=O [Compound A-306, 4-({4-[4-(4-chloro-2-fluorophenyl)-2-oxopiperazin-1-yl]-3-methyl-1H-pyrazol-1-yl}sulfonyl)-N,N-dimethylbenzene-1-sulfonamide] | ≥ 10
23 | CN1CC2(CCN(c3ccccc3N(C)S(=O)(=O)c3ccc(S(C)(=O)=O)cc3)CC2)c2ccc(F)cc21 [Compound A-307, N-(2-{6-fluoro-1-methyl-1,2-dihydrospiro[indole-3,4′-piperidin]-1′-yl}phenyl)-4-methanesulfonyl-N-methylbenzene-1-sulfonamide] | 2.01 to 8
24 | CCOC(=O)N1CCN(c2ccccc2NS(=O)(=O)c2ccc(S(=O)(=O)N(C)C)cc2)CC1 [Compound A-308, ethyl 4-{2-[4-(dimethylsulfamoyl)benzenesulfonamido]phenyl}piperazine-1-carboxylate] | 2.01 to 8
25 | COC(=O)N1CCN(c2ccccc2NS(=O)(=O)c2ccc(S(=O)(=O)N(C)C)cc2)CC1 [Compound A-309, methyl 4-{2-[4-(dimethylsulfamoyl)benzenesulfonamido]phenyl}piperazine-1-carboxylate] | 2.01 to 8
